The values that follow come from US20250275943A1, “COMPOSITION FOR CANCER DIAGNOSIS TARGETING TUMOR AND/OR TUMOR MICROENVIRONMENT AND USE THEREOF” (Korea University Research and Business Foundation, priority 2024, published 2025).

Read-outs that look alike come from different tables or passages of the source.

Series [1] is described as follows: Mouse tissue staining experiment, fluorescence of extracted organs. To be noted: normal mouse, organs extracted 4 hours after injection; FIG. 9.
From the text: (§1) Each graph represents the fluorescence signal of each organ.
For series [2] the following is noted: mouse, in vivo.
From the text: as §1
For series [3], the system named is A549 cancer cells, which do not express folate receptors, and H522 cancer cells, which express folate receptors. The series is described as follows: Fluorescent contrast observation of cancer cells with and without folate receptor expression. The format is cell-based. To be noted: A549 (no folate receptors) vs H522 (folate receptors); FIG. 5A, 5B. An excerpt:
Accordingly, it was identified that FMK-2 had no cytotoxicity.

On to `CC1(C)C(/C=C/C2=C(Cl)C(=C/C=C3/N(CCC(=O)O)c4ccc(S(=O)(=O)O)cc4C3(C)C)/CCC2)=[N+](CCC(=O)O)c2ccc(S(=O)(=O)[O-])cc21` [Compound 1, 3-(2-((E)-2-((E)-3-(2-((E)-1-(2-carboxyethyl)-3,3-dimethyl-5-sulfoindolin-2-ylidene)ethylidene)-2-chlorocyclohex-1-en-1-yl)vinyl)-3,3-dimethyl-5-sulfo-3H-indol-1-ium-1-yl)propanoate], for which the “fluorescence signal of each organ” value in series [1] was “signals were higher in the liver and kidneys compared to other organs”. On to `CC1(C)C(/C=C/C2=C(Cl)C(=C/C=C3/N(CCC(=O)NC4O[C@@H](CO)[C@H](O)[C@@H](O)[C@H]4O)c4ccc(S(=O)(=O)O)cc4C3(C)C)/CCC2)=[N+](CCC(=O)NC2O[C@H](CO)[C@@H](O)[C@H](O)[C@@H]2O)c2ccc(S(=O)(=O)O)cc21` (stereo partly drawn) [Compound 2, 2-((E)-2-((E)-2-chloro-3-(2-((E)-3,3-dimethyl-1-(3-oxo-3-(((3R,4R,5R,6S)-3,4,5-trihydroxy-6-(hydroxymethyl)tetrahydro-2H-pyran-2-yl)amino)propyl)-5-sulfoindolin-2-ylidene)ethylidene)cyclohex-1-en-1-yl)vinyl)-3,3-dimethyl-1-(3-oxo-3-(((3S,4S,5S,6R)-3,4,5-trihydroxy-6-(hydroxymethyl)tetrahydro-2H-pyran-2-yl)amino)propyl)-5-sulfo-3H-indol-1-ium], for which the “fluorescence signal of each organ” value in series [2] was “overall signals were identified in all organs”. In addition, in series [3], the “fluorescence expression in cancer cells depending on folate receptor expression” value is given as “expressed fluorescence in cancer cells regardless of whether folate receptors were expressed”.

In the case of `CC1(C)C(/C=C/C2=C(SCCOCCOCCNC(=O)CCC(NC(=O)c3ccc(NCc4cnc5nc(N)nc(O)c5n4)cc3)C(=O)O)C(=C/C=C3/N(CCC(=O)O)c4ccc(S(=O)(=O)O)cc4C3(C)C)/CCC2)=[N+](CCC(=O)O)c2ccc(S(=O)(=O)[O-])cc21` (stereo not shown) [Compound 4, 2-((E)-2-((E)-2-((1-(4-(((2-amino-4-oxo-1,4-dihydropteridin-7-yl)methyl)amino)phenyl)-3-carboxy-1,6-dioxo-10,13-dioxa-2,7-diazapentadecan-15-yl)thio)-3-(2-((E)-1-(2-carboxyethyl)-3,3-dimethyl-5-sulfoindolin-2-ylidene)ethylidene)cyclohex-1-en-1-yl)vinyl)-1-(2-carboxyethyl)-3,3-dimethyl-5-sulfo-3H-indol-1-ium], the “fluorescence signal of each organ” value in series [1] is “signals were identified in the kidneys and small intestine”.
